Test results from patent publication US20060067978A1, “Process for preparing poly(vinyl alcohol) drug delivery devices” (Bausch & Lomb Incorporated, priority 2004, published 2006).

Test: thermal decomposition of the medicament at curing temperature
Format: physicochemical
Conditions: heat stability considered for curing poly(vinyl alcohol) in the presence of the medicament

temperature above which the medicament begins to decompose: about 165 °C
Structure (SMILES): CC1(C)O[C@@H]2C[C@H]3[C@@H]4C[C@H](F)C5=CC(=O)C=C[C@]5(C)[C@@]4(F)[C@@H](O)C[C@]3(C)[C@]2(C(=O)CO)O1 [flucinolone acetonide]
